Calls of active or inactive are those of the source.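 The calls were made as follows: active = lipid-stain IC50 at or below a set limit, with nuclear-stain toxicity IC50 at least five times higher; inactive = the rest.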
Key:
TAG = TAG lipid buildup inhibition with viability readout – cell-based, panel, Nile Red and DAPI fluorescence, H9c2, dose response (AID 651630); conditions: H9c2 cells, Nile Red TAG fluorescence, oleic acid;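 also: cells exposed to compound overnight before fixation and staining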
DAPI = assay: as above; conditions: H9c2 cells, DAPI nuclear fluorescence (cytotoxicity counter-readout), oleic acid

Row | Structure (SMILES) | IC50 (TAG; mean of runs) | IC50 (TAG; run 1) [µM] | IC50 (TAG; run 2) [µM] | IC50 cytotoxicity (DAPI nuclear signal decrease) (DAPI; mean of runs) | IC50 cytotoxicity (DAPI nuclear signal decrease) (DAPI; run 1) [µM] | IC50 cytotoxicity (DAPI nuclear signal decrease) (DAPI; run 2) [µM]
1 | O=c1cc(-c2ccccc2)[nH]c2ccc(F)cc12 | > 25 µM (inactive) | > 25 | > 25 | > 25 µM (inactive) | > 25 | > 25
2 | CCN(CC)CCNc1nc(-n2nc(C)cc2C)nc2sc3c(c12)CC(C)(C)OC3 | 19.4 µM (inactive) | 16.3 | 22.6 | > 25 µM (inactive) | > 25 | > 25
3 | CCOc1ccc(S(=O)(=O)NCc2ccccn2)cc1NC(=O)c1ccccc1 | > 25 µM (inactive) | > 25 | > 25 | > 25 µM (inactive) | > 25 | > 25
4 | COc1ccc(Oc2nc(-c3ccccn3)nc3ccccc23)cc1 | > 25 µM (inactive) | > 25 | > 25 | > 25 µM (inactive) | > 25 | > 25
5 | COc1ccc(NC(=O)C2(C)Cc3c(-c4ccc5c(c4)OCO5)ccnc3O2)cn1 (stereo not drawn) | > 25 µM (inactive) | > 25 | > 25 | > 25 µM (inactive) | > 25 | > 25
6 | COc1ccc(-c2ccc3[nH]c4c(c3c2)CCN2C(=O)[C@@H]([C@H](C)O)[C@@H](N(C)C(=O)Nc3cc(Cl)cc(Cl)c3)C[C@@H]42)cc1 | 19.5 µM (inactive) | 17.4 | 21.5 | > 25 µM (inactive) | > 25 | > 25
7 | CC(C)(C)c1cc(NCc2ccccn2)n2ncc(-c3ccc(Cl)cc3)c2n1 | > 25 µM (inactive) | > 25 | > 25 | > 25 µM (inactive) | > 25 | > 25
8 | Cc1cc(N2CCN(Cc3cn(C)nc3-c3ccccc3F)CC2)cc(C)n1 | 13.1 µM | 11.1 | 15.1 | > 25 µM (inactive) | > 25 | > 25
9 | O=C(c1cnn2c1NC(c1ccc(Br)cc1)CC2C(F)(F)F)N1CCN(C23CC4CC(CC(C4)C2)C3)CC1 (stereo not drawn) | > 25 µM (inactive) | > 25 | > 25 | > 25 µM (inactive) | > 25 | > 25
10 | CC1(C)Cc2c(C#N)c(SCC(=O)c3ccccc3)nc(N3CCOCC3)c2CS1 | 19.3 µM (inactive) | 19.5 | 19.1 | > 25 µM (inactive) | > 25 | > 25
11 | Cc1nn2c(NCc3ccccn3)c3c(nc2c1-c1ccccc1)CCC3 | > 25 µM (inactive) | > 25 | > 25 | > 25 µM (inactive) | > 25 | > 25
12 | COc1ccc(CC(N)c2csc(NC(=O)Nc3ccccc3C(C)C)n2)cc1 (stereo not drawn) | > 25 µM (inactive) | > 25 | > 25 | 21.5 µM (inactive) | 20.3 | 22.7
13 | CCn1ncc(/C=N/N=C2\CCC3C4CCc5cc(O)ccc5C4CCC23C)c1C (stereo not drawn) | > 25 µM (inactive) | > 25 | > 25 | > 25 µM (inactive) | > 25 | > 25
14 | O=C(NCc1nnnn1-c1ccc(F)cc1)c1ccc([N+](=O)[O-])o1 | 18.9 µM (inactive) | 21.7 | 16 | 11.8 µM (inactive) | 11.8 | 11.9
15 | Nc1ncnc2c1ncn2C1C=C(CO)C(O)C1O (stereo not drawn) | 12.5 µM | 11.4 | 13.7 | > 25 µM (inactive) | > 25 | > 25
16 | COc1ccc(Nc2nc3cc(-c4sccc4C)sc3c(=O)n2C)cc1OC | 16.6 µM (inactive) | 16.8 | 16.5 | > 25 µM (inactive) | > 25 | > 25
17 | CC(C)C[C@@H](CNC(=O)OC(C)(C)C)NC(=O)c1nc[nH]c1C(=O)N[C@@H](CC(C)C)C(=O)CNC[C@H](CC(C)C)NC(=O)c1nc[nH]c1C(=O)N[C@@H](Cc1c[nH]c2ccccc12)C(=O)OC(C)(C)C | 5.5 µM | 4.49 | 6.51 | > 25 µM (inactive) | > 25 | > 25

Row | Structure (SMILES) | IC50 (TAG; mean of runs) | IC50 (TAG; run 1) [µM] | IC50 (TAG; run 2) [µM] | IC50 cytotoxicity (DAPI nuclear signal decrease) (DAPI; mean of runs) | IC50 cytotoxicity (DAPI nuclear signal decrease) (DAPI; run 1) [µM] | IC50 cytotoxicity (DAPI nuclear signal decrease) (DAPI; run 2) [µM]
18 | COc1ccccc1-c1cc(C(F)(F)F)nc(S(=O)(=O)CCCC(=O)NC(C)C)n1 | 11.2 µM | 13.5 | 8.8 | 18.4 µM (inactive) | 19.9 | 17
19 | CCc1cc2c3c(c1)C1(C(=O)N3C(C)(C)C=C2C)C(C#N)=C(N)Oc2[nH]c(=O)[nH]c(=O)c21 (stereo not drawn) | > 25 µM (inactive) | > 25 | > 25 | > 25 µM (inactive) | > 25 | > 25
20 | COc1cc(C2=NOC(C(=O)NCc3cccs3)C2)cc(OC)c1OC (stereo not drawn) | 13.7 µM | 17.3 | 10.1 | > 25 µM (inactive) | > 25 | > 25
21 | COc1ccc(-c2cc(C(=O)Nc3cc(OC)cc(C(=O)Nc4cccc(C(F)(F)F)c4)c3)[nH]n2)cc1 |  | > 25 | 4.64 | > 25 µM (inactive) | > 25 | > 25
22 | CCN(CC)CCCN(C(=O)c1cccs1)c1nc(-c2ccc(OC)cc2)cs1 | 10.3 µM | 10.5 | 10 | > 25 µM (inactive) | > 25 | > 25
23 | COc1ccc(NC(=O)C2(C)Cc3c(-c4cccc(NC(C)=O)c4)ccnc3O2)cn1 (stereo not drawn) | > 25 µM (inactive) | > 25 | > 25 | > 25 µM (inactive) | > 25 | > 25
24 | CCCCCC(=C/c1ccccc1)/C=N/Nc1ccc(S(=O)(=O)N2CCOCC2)cc1[N+](=O)[O-] | 2.9 µM | 1.96 | 3.83 |  | > 25 | > 25
25 | c1ccc(-c2csc(NNC3=NCCCCC3)n2)cc1 | 3.65 µM | 3.15 | 4.14 |  | > 25 | > 25
26 | O=P(O)(O)CN1CCNCCN(CP(=O)(O)O)CCNCC1 |  | 24.7 | > 25 | > 25 µM (inactive) | > 25 | > 25
27 | CN(C)CCCNC(=O)CC1C[C@H](C(=O)N2CCCCC2)[C@@]2(CCc3ccccc3)c3[nH]c4ccccc4c3CCN2C1=O (stereo partly drawn) | 20 µM (inactive) | 23.2 | 16.8 | > 25 µM (inactive) | > 25 | > 25
28 | CCC(C)(C)C1CCC2(CC1)NC(=O)N(CC(=O)NCCc1ccc(OC)c(OC)c1)C2=O (stereo not drawn) | 3.29 µM | 1.91 | 4.67 |  | > 25 | > 25
29 | N#C/C(=C\Nc1ccc2cn[nH]c2c1)c1nc(-c2ccc(Cl)cc2)cs1 | 11.1 µM | 8.39 | 13.8 | 17.8 µM (inactive) | 23.7 | 12
30 | COc1cc(C(CCN2CCCC(C)C2)c2c(OC)cc(OC)c3c(-c4ccccc4)cc(=O)oc23)cc(OC)c1OC (stereo not drawn) | 14.1 µM | 14.8 | 13.5 | > 25 µM (inactive) | > 25 | > 25
31 | CN(C)c1ccc(NC(=O)Nc2nc(C(N)C3CCCCC3)cs2)cc1 (stereo not drawn) | > 25 µM (inactive) | > 25 | > 25 | > 25 µM (inactive) | > 25 | > 25
32 | CCOC(=O)c1cc(-c2ccccc2)sc1NC(=S)Nc1cccc(C)n1 | > 25 µM (inactive) | > 25 | > 25 | > 25 µM (inactive) | > 25 | > 25
33 | COc1cc(C#Cc2c(-c3cncn3C)n(C)c3ccc(-c4cnc(N5CCOCC5)nc4)cc23)cc(OC)c1 | 11 µM | 14.3 | 7.65 | > 25 µM (inactive) | > 25 | > 25
